Measurements published in patent US8318793B2, “Heterocyclic compounds and their use as glycogen synthase kinase-3 inhibitors” (Abbott GmbH & Co. KG, priority 2009, dated 2012).

Biological target: T1, human Glycogen Synthase Kinase-3 beta (hGSK-3β) (Homo sapiens, UniProt P49841)
T1 construct: purchased Upstate cell signaling solutions
Test: Biochemical hGSK-3beta assay (33P-ATP phosphorylation of biotinylated peptide substrate)
Settings: 10 μM ATP, 30 minutes at room temperature; read-out: GSK-3β IC50
Procedure: Methods—Biochemical hGSK-3beta Assay
Compounds were tested for their ability to inhibit human Glycogen Synthase Kinase-3 beta (hGSK-3β) to phosphorylate biotin-[…](pS)EDEEE. Compounds were incubated with 0.5 μCi 33P-ATP, 10 μM ATP, 0.0125U hGSK-3β (Upstate cell signaling solutions) and 1 μM substrate (biotin-[…](pS)EDEEE) in 50 mM HEPES, 10 mM MgCl2, […], 1 mM DTT, 0.0075% Triton, 2% DMSO (total volume 50 μL) for 30 minutes at room temperature. The incubation was stopped by addition of an equal volume of 100 mM EDTA, 4M NaCl. 80 μL of this mixture was added to streptavidin-coated Flashplates (PerkinElmer). Following a wash step, 33P incorporation was quantified on a MicroBeta microplate liquid scintillation counter (PerkinElmer). IC50's were determined by fitting a sigmoidal dose-response curve to the counts obtained at the different concentrations in GraphPad Prism.

T1 sequence (P49841 whole entry): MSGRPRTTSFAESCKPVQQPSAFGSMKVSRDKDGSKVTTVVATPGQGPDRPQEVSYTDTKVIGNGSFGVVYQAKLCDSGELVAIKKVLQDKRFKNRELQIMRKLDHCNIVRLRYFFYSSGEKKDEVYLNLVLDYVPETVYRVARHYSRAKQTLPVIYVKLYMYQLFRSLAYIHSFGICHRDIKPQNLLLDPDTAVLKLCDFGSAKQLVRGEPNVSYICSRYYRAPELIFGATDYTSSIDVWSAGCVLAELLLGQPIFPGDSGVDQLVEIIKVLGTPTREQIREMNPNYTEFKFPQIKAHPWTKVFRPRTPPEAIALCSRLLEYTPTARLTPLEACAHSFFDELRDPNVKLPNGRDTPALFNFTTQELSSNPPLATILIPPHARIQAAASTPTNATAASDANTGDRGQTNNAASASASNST

| IC50 [nM] | Structure (SMILES) |
| --- | --- |
| 100 to 10000 | Oc1[nH]c2cnccc2c1-c1ccc(CN2CCOCC2)cn1 [Example 3, 3-(5-(Morpholinomethyl)-pyridin-2-yl)-1H-pyrrolo[2,3-c]pyridin-2-ol] |
| < 100 | N#Cc1ccc2[nH]c(O)c(-c3ccc(CN4CC[C@H]5CNC[C@H]54)cn3)c2c1 (stereo in doubt) [Example 5, 3-(5-(((3aS,6aS)-Hexahydropyrrolo[3,4-b]pyrrol-1(2H)-yl)methyl)-pyridin-2-yl)-2-hydroxy-1H-indole-5-carbonitrile] |
| < 100 | Oc1[nH]c2ccc(Br)nc2c1-c1ccc(CN2CCOCC2)cn1 [Example 4, 5-Bromo-3-(5-(morpholinomethyl)-pyridin-2-yl)-1H-pyrrolo[3,2-b]pyridin-2-ol] |
| 10000 to 100000 | Oc1[nH]c2ncccc2c1-c1ccc(CN2CCOCC2)cn1 [Example 2, 3-(5-(Morpholinomethyl)-pyridin-2-yl)-1H-pyrrolo[2,3-b]pyridin-2-ol] |
| < 100 | N#Cc1ccc2[nH]c(O)c(-c3ccc(CN4CC5COCC5C4)cn3)c2c1 (stereo not drawn) [Example 1, 3-(5-((Dihydro-1H-furo[3,4-c]pyrrol-5(3H,6H,6aH)-yl)methyl)pyridin-2-yl)-2-hydroxy-1H-indole-5-carbonitrile] |
| 100 to 10000 | [O-][n+]1cc(CN2CCOCC2)ccc1-c1c(O)[nH]c2ccc(Br)nc12 [Example 4.1, 2-(5-Bromo-2-hydroxy-1H-pyrrolo[3,2-b]pyridin-3-yl)-5-(morpholinomethyl)-pyridine 1-oxide] |
